Source: patent EP0005658A1, “Peptide derivatives analogue to encephalines, process for their preparation and their therapeutical application” (Laboratoire le Brun S.A. Société dite:, priority 1978, dated 1979)
Values joined by “and” are separate entries in the source; they are usually repeats but may differ in a detail not shown here. Equal entries are not always repeated.

Assays:
[1] = system: rat; experiment: Castor oil diarrhoea test in the rat; type: in vivo
[2] = target: iléon de cobaye (Cavia porcellus, UniProt A0ACM8Q262); experiment: cell-based; type: cell-based; conditions: for Activité Morphine =100: activity relative to morphine (= 100) in concomitant tests
iléon de cobaye, sequence (A0ACM8Q262 1-400): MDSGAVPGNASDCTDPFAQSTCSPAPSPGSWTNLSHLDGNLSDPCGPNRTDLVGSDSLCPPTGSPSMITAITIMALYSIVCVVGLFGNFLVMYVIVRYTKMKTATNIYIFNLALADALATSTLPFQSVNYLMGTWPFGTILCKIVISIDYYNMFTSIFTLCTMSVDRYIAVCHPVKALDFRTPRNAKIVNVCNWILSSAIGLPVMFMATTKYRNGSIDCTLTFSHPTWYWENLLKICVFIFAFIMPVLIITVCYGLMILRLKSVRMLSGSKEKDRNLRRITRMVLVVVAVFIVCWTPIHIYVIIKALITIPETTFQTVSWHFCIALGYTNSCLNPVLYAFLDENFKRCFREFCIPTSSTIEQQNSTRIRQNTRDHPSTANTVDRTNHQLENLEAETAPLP
Experimental: I. Action analgésique par rapport à la morphine comme substance de référence qui a été contrôlée • a) Sur organe isolé. - iléon de cobaye
On a utilisé la technique de stimulation transmu- rale de l'iléon de cobaye de PATON (W.D.M. PATON, "The rés- ponse of the guinea-pig ileum to electrical stimulation by coaxial electrodes" - J. Physiol. (London), 127, 40P-41P (1955) et PATON (W.D.M.) - Brit.J. Pharmacol. 11).
• - Les essais ont été réalisés dans une cuve de 35 ml irriguée par une solution de KREBS. • - Les stimulations électriques, supramaximales (6 par minute - […]) étaient ajustées à chaque essai. Courant rectangulaire - durée-0,5 milliseconde. • - Les concentrations des différents produits étudiés, ainsi que celles de la morphine qui a servi de corps de référence, sont exprimées en nanomoles (nM) par litre. • - Pour chaque concentration, le temps de contact a été de 3 minutes. Chaque essai était séparé du suivant par une période de 10 à 20 minutes. • - Les résultats sont exprimés en pourcentage d'inhibition de la concentration consécutive à la stimulation électri--que de l'iléon. On a ensuite calculé les doses actives 50 par la méthode de Parker et Waud (J. of pharmacology, 1971, 177, n°4) qui ont été comparées à celle de la morphine dans des essais concomitants.

[3] = target: Vas déferens de souris (Mus musculus, UniProt P32300); experiment: Transmural electrical stimulation of mouse vas deferens (Hughes and Kosterlitz); type: cell-based; conditions: contact time 3 minutes, read-out: % d'inhibition
Vas déferens de souris, sequence (P32300 whole entry): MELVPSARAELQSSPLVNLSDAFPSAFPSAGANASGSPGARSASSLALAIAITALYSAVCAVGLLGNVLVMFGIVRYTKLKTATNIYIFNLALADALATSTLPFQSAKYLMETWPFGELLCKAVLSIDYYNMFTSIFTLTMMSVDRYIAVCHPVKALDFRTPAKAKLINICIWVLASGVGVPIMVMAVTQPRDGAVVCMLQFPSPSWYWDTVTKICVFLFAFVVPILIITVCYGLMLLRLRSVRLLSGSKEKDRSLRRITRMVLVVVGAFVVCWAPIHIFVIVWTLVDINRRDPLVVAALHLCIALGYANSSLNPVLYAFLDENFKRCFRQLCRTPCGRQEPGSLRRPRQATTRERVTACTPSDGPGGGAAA
Experimental: On a utilisé une technique de stimulation transmu- rale du canal différent de la souris, adaptée à celle décrite par HUCHES et KOSTERLITZ (J.HUGUES, H.W.KOSTERLITZ and Frances M.LESLIE, "Effect of morphine ou adrenergic transmission in the mouse vas deferens. Assessment of ago- nist and antagonist potencies of narcotic analgesics".-Br J. Pharmac. 53 371-381 (1975).
• - Les essais ont été réalisés dans une cuve de 7 ml irriguée par une solution de KREBS. • - Les stimulations électriques, supramaximales (6 par minute) étaient ajustées à chaque essai. • - Les concentrations des différents produits étudiés sont exprimées en nM par litre. • - Pour chaque concentration le temps de contact a été de 3 minutes. Dans les cas où le maximum d'inhibition a été atteint en un temps plus court, le fait a été signalé. Chaque essai était séparé du suivant par une période de 10 à 20 minutes. • - Les résultats sont exprimés en pourcentage d'inhibition de la concentration consécutive à la stimulation électrique du canal déférent. On a ensuite calculé les doses actives 50 par la méthode de Parker & Wand (J.Pharm. Exper. Therap.96-99 (1949).

[4] = system: rat; experiment: Catalepsy in the rat (psychotropic action); type: in vivo
Source text: Elle a été évaluée par la recherche d'une catalepsie chez le rat.
Ces essais ont été réalisés avec des rats femelles indexes d'organisées pathogènes spécifiques pesant de 200 à 220 g.
L'effet cataleptique est mesuré en suspendant le rat par ses pattes antérieures au rebord de la cage d'expérience : un rat cataleptique reste dans cette position alors qu'un animal normal l'abandonne aussitôt, voire ne la prend pas du tout.
La catalepsie est appréciée de la façon suivante: • 0 : pas de catalepsie • 1 : catalepsie liminaire • 2 : catalepsie d'intensité moyenne • […] : catalepsie très prononcée
Les animaux sont traités par voie sous cutanée.
Les expériences ont été effectuées à l'aveugle, l'observateur ignorant les traitements.

[5] = target: sites de liaison à haute et moyenne affinité de la leucine-enképhaline 3-R de membranes striatales de souris; experiment: Competition with tritiated Leu-enkephalin binding on mouse striatal membranes; conditions: displacement of a fixed concentration of Leucine-Enképhaline 3-H
Experimental: On a déterminé le pouvoir compétiteur des dérivés de l'invention vis-à-vis des sites de liaison à haute et moyenne affinité de la leucine-enképhaline 3-R de membranes striatales de souris.
Les conditions de préparation des membranes et d'incubation ont été les mêmes que celles qui sont décrites dans Audigier et Coll. (C. Acad. Sciences plus Euro- pean J. of Pharmacol.).
Des concentrations croissantes des divers composés synthétisés ont été opposées à une concentration fixe de Leucine-Enképhaline 3-H et les déplacements observés ont permis dans chaque cas de déterminer une constante d'inhi- bition (Ki).

[6] = Acute toxicity in the mouse; design: species or system souris; conditions: in vivo, IV route, read-out: D.L. 5a
Experimental: Les dérivés de formule générale I bénéficient d'une excellente tolérance et d'une faible toxicité qui a été plus particulièrement étudiée sur lés dérivés N° 12 et 13, qui ont fait l'objet d'une épreuve de toxicité aiguë chez la souris.
Les D.L. 5a obtenues sont respectivement de : • 725 ± 25 mg/kg par voie IV pour le dérivé.n° 12. • et 892 ± 31 mg/kg "" " pour le dérivé n° 13.

[7] = system: souris; experiment: Hot plate test in the mouse (analgesia); conditions: 10 mg/kg compared with morphine 1 mg/kg, taking molarities into account
[8] = 2 heures after product, oral 3 mg/kg, 10 rats
[9] = 2 heures after product, oral 10 mg/kg, 10 rats (Codéine base: 20 rats)
[10] = 2 heures after product, oral 30 mg/kg, 10 rats
[11] = 4 heures after product, oral 3 mg/kg, 10 rats
[12] = 4 heures after product, oral 10 mg/kg, 10 rats (Codéine base: 20 rats)
[13] = 4 heures after product, oral 30 mg/kg, 10 rats

Structure (SMILES): COc1ccc2c3c1O[C@H]1[C@@H](O)C=C[C@H]4[C@@H](C2)N(C)CC[C@@]341 [Codéine base, Codéine]
- Nombre d'animaux non diarrhéiques [1, 8]: 7
- Nombre d'animaux non diarrhéiques [1, 9]: 19
- Nombre d'animaux non diarrhéiques [1, 10]: 10
- Nombre d'animaux non diarrhéiques [1, 11]: 4
- Nombre d'animaux non diarrhéiques [1, 12]: 14
- Nombre d'animaux non diarrhéiques [1, 13]: 8

Structure (SMILES): CSCC[C@H](NC(=O)[C@H](Cc1ccccc1)NC(=O)CNC(=O)[C@@H](C)NC(=O)[C@@H](N)Cc1ccc(O)cc1)C(=O)NCCNS(=O)(=O)c1cccc2c(N(C)C)cccc12 [Dérivé n° 12, Tyr-D Ala- Gly-Phe-Met-NH-(CH2)2-NH-SO2 -X, dans lequel X est un groupe 5 diméthylamino-α-naphtyle]
- inhibition at 0.012 µM ([2]; 12 nM/l, contact time 3 minutes, read-out: % d'inhibition): 28.3%
- inhibition at 0.018 µM ([2]; 18 nM/l, contact time 3 minutes, read-out: % d'inhibition): 35.5%
- inhibition at 0.024 µM ([2]; 24 nM/l, contact time 3 minutes, read-out: % d'inhibition): 51.3%
- inhibition at 0.06 µM ([2]; 60 nM/l, contact time 3 minutes, read-out: % d'inhibition): 76.3%
- Activité Morphine =100 [2]: 147
- inhibition at 0.0012 µM ([3]; 1,2 nM/l): 41.8%
- inhibition at 0.0018 µM ([3]; 1,8 nM/l): 50%
- inhibition at 0.0024 µM ([3]; 2,4 nM/l): 63%
- D.A. 50/ sous cut. ([4]; catalepsy, subcutaneous route, female rats): 5 mg/kg
- Nombre d'animaux non diarrhéiques [1, 8]: 6
- Nombre d'animaux non diarrhéiques [1, 9]: 10
- Nombre d'animaux non diarrhéiques [1, 10]: 10
- Nombre d'animaux non diarrhéiques [1, 11]: 3
- Nombre d'animaux non diarrhéiques [1, 12]: 6
- Nombre d'animaux non diarrhéiques [1, 13]: 10
- action antidiarrhéique ([1]; statement in words, 30 mg/kg, four hours): protège tous les animaux
- Ki [5]: 5 ± 2 nM
- LD50 [6]: 725 ± 25 mg/kg
- coefficient d'activité [7]: ~35%

Structure (SMILES): CSCC[C@H](NC(=O)[C@H](Cc1ccccc1)NC(=O)CNC(=O)[C@@H](C)NC(=O)[C@@H](N)Cc1ccc(O)cc1)C(=O)NCCCCCNS(=O)(=O)c1cccc2c(N(C)C)cccc12 [Dérivé n° 13]
- inhibition at 0.15 µM ([2]; 150 nM/l, contact time 3 minutes, read-out: % d'inhibition): 34.2%
- inhibition at 0.3 µM ([2]; 300 nM/l, contact time 3 minutes, read-out: % d'inhibition): 46.4%
- inhibition at 0.6 µM ([2]; 600 nM/l, contact time 3 minutes, read-out: % d'inhibition): 68.1%
- Activité Morphine =100 [2]: 12,7
- inhibition at 0.6 µM ([3]; 600 nM/l): 38%
- inhibition at 0.75 µM ([3]; 750 nM/l): 55%
- inhibition at 0.9 µM ([3]; 900 nM/l): 83.3%
- inhibition at 1.5 µM ([3]; 1 500 nM/l): 90.5%
- Ki [5]: 21 ± 5 nM
- LD50 [6]: 892 ± 31 mg/kg

Structure (SMILES): O=C(CCCN1CCC(O)(c2ccc(Cl)cc2)CC1)c1ccc(F)cc1 [Halopéridol]
- ED50 ([4]; Rattus norvegicus, sc, catalepsy, subcutaneous route, female rats, read-out: D.A. 50/ sous cut.): 0.2 mg/kg

Structure (SMILES): CC(C)C[C@H](NC(=O)[C@H](Cc1ccccc1)NC(=O)CNC(=O)CNC(=O)[C@@H](N)Cc1ccc(O)cc1)C(=O)O [Leu-enképhaline, reference compound]
- Ki [5]: 5 ± 1.8 nM

Structure (SMILES): CN1CC[C@]23c4c5ccc(O)c4O[C@H]2[C@@H](O)C=C[C@H]3[C@H]1C5 [Morphine]
- D.A. 50/ sous cut. ([4]; rat, in vivo, sc): 2,5 mg/kg
- Nombre d'animaux non diarrhéiques ([1]; rat, in vivo, po, 3 mg/kg): 9 and 5
- Nombre d'animaux non diarrhéiques ([1]; rat, in vivo, po, 10 mg/kg): 10 and 8
